Measurements from patent US9738902B2, “Modified PYR/PYL receptors activated by ligands” (priority 2013, dated 2017).

Experiments:
Assay type in all cases: cell-based
PYR1 K59R A89C A160G = molecular target: T1, PYR1 K59R A89C A160G (Arabidopsis thaliana, UniProt O49686, A160G/A89C/K59R); test: Y2H Combinatorial Mutagenesis Screen I (HAB1, X-gal)
T1 construct: expressed in transfected cells; host or cells: S. cerevisiae Y190 two-hybrid reporter strain
Text: (§1) This screening approach yielded mutants at ligand contacting residues that alter sensitivity to specific ligands. We reasoned that receptor sensitivity could be improved by systematically constructing combinations of the best mutant variants identified in the first round of screening. To test this, we constructed mutant combinations using the strongest mutations identified for mandipropamid, benzothiadiazole, benoxacor or fludioxonil sensitivity. The mutations selected for combinatorial mutagenesis are listed in bold type in Table 1; The mutant combinations were constructed using the QuickChange Lightning Multi Site-Directed PCR Mutagenesis kit (Agilent, USA) using pBD-PYR1^K59R template DNA and mutagenic primers, essentially as previously described (Mosquna et al., 2011). The mutant combinations were sequence validated, introduced into the pACT-HAB1 Y190 reporter strain and then tested for responsiveness to a range of compound concentrations (100, 50, 25, 10, 1, 0.2, 0.1 or 0 μM each test compound). These efforts yielded double mutant receptor variants with improved sensitivity for the 4 compound/receptor pairs examined (see entries labeled “Combinatorial Mutagenesis Screen I” in Table 1).

PYR1 K59R A89C E141Y = molecular target: T2, PYR1 K59R A89C E141Y (Arabidopsis thaliana, UniProt O49686, A89C/E141Y/K59R); test: as above
T2 construct: expressed in transfected cells; host or cells: S. cerevisiae Y190 two-hybrid reporter strain
Text: as §1

PYR1 K59R E141Y A160G = molecular target: T3, PYR1 K59R E141Y A160G (Arabidopsis thaliana, UniProt O49686, A160G/E141Y/K59R); test: as above
T3 construct: expressed in transfected cells; host or cells: S. cerevisiae Y190 two-hybrid reporter strain
Text: as §1

PYR1 K59R A160G L117C = molecular target: T4, PYR1 K59R A160G L117C (Arabidopsis thaliana, UniProt O49686, A160G/K59R/L117C); test: as above
T4 construct: expressed in transfected cells; host or cells: S. cerevisiae Y190 two-hybrid reporter strain
Text: as §1

PYR1 K59R A160G V164K = molecular target: T5, PYR1 K59R A160G V164K (Arabidopsis thaliana, UniProt O49686, A160G/K59R/V164K); test: as above
T5 construct: expressed in transfected cells; host or cells: S. cerevisiae Y190 two-hybrid reporter strain
Text: as §1

PYR1 K59R A89C V164K = molecular target: T6, PYR1 K59R A89C V164K (Arabidopsis thaliana, UniProt O49686, A89C/K59R/V164K); test: as above
T6 construct: expressed in transfected cells; host or cells: S. cerevisiae Y190 two-hybrid reporter strain
Text: as §1

PYR1 K59R L117C V164K = molecular target: T7, PYR1 K59R L117C V164K (Arabidopsis thaliana, UniProt O49686, K59R/L117C/V164K); test: as above
T7 construct: expressed in transfected cells; host or cells: S. cerevisiae Y190 two-hybrid reporter strain
Text: as §1

PYR1 K59R A89C L117C = molecular target: T8, PYR1 K59R A89C L117C (Arabidopsis thaliana, UniProt O49686, A89C/K59R/L117C); test: as above
T8 construct: expressed in transfected cells; host or cells: S. cerevisiae Y190 two-hybrid reporter strain
Text: as §1

PYR1 K59R F159C = molecular target: T9, PYR1 K59R F159C (Arabidopsis thaliana, UniProt O49686, F159C/K59R); test: Y2H Pocket Library Screen (HAB1, X-gal)
T9 construct: expressed in transfected cells; host or cells: S. cerevisiae Y190 two-hybrid reporter strain
Protocol: (§2) The set of 475 mutant plasmids were individually transformed into the Y190 yeast two hybrid reporter strain co-transformed with pACT-HAB1, as previously described (Park et al., 2009). The yeast strains generated were arrayed into 96-well plates yielding what we refer to as the “pocket library”. The pocket library strains were spotted onto agar plates containing selective synthetic dextrose (minus Leu & Trp) medium that was supplemented with a single test compound at 100 μM. The pocket library strains were separately tested for responsiveness to the following compounds: dichlobenil, benzothiadiazole, mandipropamid, fludioxonil, and benoxacor. After incubating test plates at 30° C. for two days, colonies were chloroform lysed and stained to reveal β-galactosidase expression levels, using previously described methods (Park et al., 2009). Mutants displaying responsiveness to the test compound, if present, were identified by virtue of X-gal staining and then subjected to subsequent optimization efforts. Using this approach we identified mutations that conferred detectable sensitivity to the compounds tested (see entries labeled “Pocket Library Screens” in Table 1).

PYR1 K59R M158V = molecular target: T10, PYR1 K59R M158V (Arabidopsis thaliana, UniProt O49686, K59R/M158V); test: Y2H Pocket Library Screen (HAB1, X-gal)
T10 construct: expressed in transfected cells; host or cells: S. cerevisiae Y190 two-hybrid reporter strain
Protocol: as §2

PYR1 K59R F159M = molecular target: T11, PYR1 K59R F159M (Arabidopsis thaliana, UniProt O49686, F159M/K59R); test: Y2H Pocket Library Screen (HAB1, X-gal)
T11 construct: expressed in transfected cells; host or cells: S. cerevisiae Y190
Protocol: as §2

PYR1 K59R V81I = molecular target: T12, PYR1 K59R V81I (Arabidopsis thaliana, UniProt O49686, K59R/V81I); test: Y2H Pocket Library Screen (HAB1, X-gal)
T12 construct: expressed in transfected cells; host or cells: S. cerevisiae Y190 yeast two-hybrid reporter strain
Protocol: as §2

PYR1 K59R F159V = molecular target: T13, PYR1 K59R F159V (Arabidopsis thaliana, UniProt O49686, F159V/K59R); test: Y2H Pocket Library Screen (HAB1, X-gal)
T13 construct: expressed in transfected cells; host or cells: S. cerevisiae Y190
Protocol: as §2

PYR1 K59R T162K = molecular target: T14, PYR1 K59R T162K (Arabidopsis thaliana, UniProt O49686, K59R/T162K); test: Y2H Pocket Library Screen (HAB1, X-gal)
T14 construct: expressed in transfected cells; host or cells: S. cerevisiae Y190
Protocol: as §2

PYR1 K59R T162W = molecular target: T15, PYR1 K59R T162W (Arabidopsis thaliana, UniProt O49686, K59R/T162W); test: Y2H Pocket Library Screen (HAB1, X-gal)
T15 construct: expressed in transfected cells; host or cells: S. cerevisiae Y190
Protocol: as §2

PYR1 K59R V83L = molecular target: T16, PYR1 K59R V83L (Arabidopsis thaliana, UniProt O49686, K59R/V83L); test: Y2H Pocket Library Screen (HAB1, X-gal)
T16 construct: expressed in transfected cells; host or cells: S. cerevisiae Y190 yeast two-hybrid reporter strain
Protocol: as §2

PYR1 K59R E141Y = molecular target: T17, PYR1 K59R E141Y (Arabidopsis thaliana, UniProt O49686, E141Y/K59R); test: Y2H Pocket Library Screen (HAB1, X-gal)
T17 construct: expressed in transfected cells; host or cells: S. cerevisiae Y190 two-hybrid reporter strain
Protocol: as §2

PYR1 K59R L117C = molecular target: T18, PYR1 K59R L117C (Arabidopsis thaliana, UniProt O49686, K59R/L117C); test: Y2H Pocket Library Screen (HAB1, X-gal)
T18 construct: expressed in transfected cells; host or cells: S. cerevisiae Y190 two-hybrid reporter strain
Protocol: as §2

PYR1 K59R M158T = molecular target: T19, PYR1 K59R M158T (Arabidopsis thaliana, UniProt O49686, K59R/M158T); test: Y2H Pocket Library Screen (HAB1, X-gal)
T19 construct: expressed in transfected cells; host or cells: S. cerevisiae Y190 two-hybrid reporter strain
Protocol: as §2

PYR1 K59R A89C = molecular target: T20, PYR1 K59R A89C (Arabidopsis thaliana, UniProt O49686, A89C/K59R); test: Y2H Pocket Library Screen (HAB1, X-gal)
T20 construct: expressed in transfected cells; host or cells: S. cerevisiae Y190 yeast two-hybrid reporter strain
Protocol: as §2

PYR1 K59R F159A = molecular target: T21, PYR1 K59R F159A (Arabidopsis thaliana, UniProt O49686, F159A/K59R); test: Y2H Pocket Library Screen (HAB1, X-gal)
T21 construct: expressed in transfected cells; host or cells: S. cerevisiae Y190 two-hybrid reporter strain
Protocol: as §2

PYR1 K59R V164K = molecular target: T22, PYR1 K59R V164K (Arabidopsis thaliana, UniProt O49686, K59R/V164K); test: Y2H Pocket Library Screen (HAB1, X-gal)
T22 construct: expressed in transfected cells; host or cells: S. cerevisiae Y190
Protocol: as §2

PYR1 K59R M158I = molecular target: T23, PYR1 K59R M158I (Arabidopsis thaliana, UniProt O49686, K59R/M158I); test: Y2H Pocket Library Screen (HAB1, X-gal)
T23 construct: expressed in transfected cells; host or cells: S. cerevisiae Y190 two-hybrid reporter strain
Protocol: as §2

PYR1 K59R F159L = molecular target: T24, PYR1 K59R F159L (Arabidopsis thaliana, UniProt O49686, F159L/K59R); test: Y2H Pocket Library Screen (HAB1, X-gal)
T24 construct: expressed in transfected cells; host or cells: S. cerevisiae Y190
Protocol: as §2

PYR1 K59R V164Y = molecular target: T25, PYR1 K59R V164Y (Arabidopsis thaliana, UniProt O49686, K59R/V164Y); test: Y2H Pocket Library Screen (HAB1, X-gal)
T25 construct: expressed in transfected cells; host or cells: S. cerevisiae Y190 two-hybrid reporter strain
Protocol: as §2

PYR1 K59R E141K = molecular target: T26, PYR1 K59R E141K (Arabidopsis thaliana, UniProt O49686, E141K/K59R); test: Y2H Pocket Library Screen (HAB1, X-gal)
T26 construct: expressed in transfected cells; host or cells: S. cerevisiae Y190 two-hybrid reporter strain
Protocol: as §2

PYR1 K59R A160G = molecular target: T27, PYR1 K59R A160G (Arabidopsis thaliana, UniProt O49686, A160G/K59R); test: Y2H Pocket Library Screen (HAB1, X-gal)
T27 construct: expressed in transfected cells; host or cells: S. cerevisiae Y190
Protocol: as §2

PYR1 K59R F159T = molecular target: T28, PYR1 K59R F159T (Arabidopsis thaliana, UniProt O49686, F159T/K59R); test: Y2H Pocket Library Screen (HAB1, X-gal)
T28 construct: expressed in transfected cells; host or cells: S. cerevisiae Y190
Protocol: as §2

PYR1 K59R T162Y = molecular target: T29, PYR1 K59R T162Y (Arabidopsis thaliana, UniProt O49686, K59R/T162Y); test: Y2H Pocket Library Screen (HAB1, X-gal)
T29 construct: expressed in transfected cells; host or cells: S. cerevisiae Y190
Protocol: as §2

PYR1 K59R M158C = molecular target: T30, PYR1 K59R M158C (Arabidopsis thaliana, UniProt O49686, K59R/M158C); test: Y2H Pocket Library Screen (HAB1, X-gal)
T30 construct: expressed in transfected cells; host or cells: S. cerevisiae Y190 two-hybrid reporter strain
Protocol: as §2

PYR1 K59R F159I = molecular target: T31, PYR1 K59R F159I (Arabidopsis thaliana, UniProt O49686, F159I/K59R); test: Y2H Pocket Library Screen (HAB1, X-gal)
T31 construct: expressed in transfected cells; host or cells: S. cerevisiae Y190 two-hybrid reporter strain
Protocol: as §2

T11 sequence (O49686 whole entry K59R/F159M): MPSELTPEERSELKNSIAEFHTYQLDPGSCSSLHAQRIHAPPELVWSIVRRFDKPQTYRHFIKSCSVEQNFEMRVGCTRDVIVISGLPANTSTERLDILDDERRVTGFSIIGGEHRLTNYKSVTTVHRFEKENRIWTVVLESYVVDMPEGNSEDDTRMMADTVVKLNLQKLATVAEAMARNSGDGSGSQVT
T11 sequence (Q9CAJ0 23-511, further chain): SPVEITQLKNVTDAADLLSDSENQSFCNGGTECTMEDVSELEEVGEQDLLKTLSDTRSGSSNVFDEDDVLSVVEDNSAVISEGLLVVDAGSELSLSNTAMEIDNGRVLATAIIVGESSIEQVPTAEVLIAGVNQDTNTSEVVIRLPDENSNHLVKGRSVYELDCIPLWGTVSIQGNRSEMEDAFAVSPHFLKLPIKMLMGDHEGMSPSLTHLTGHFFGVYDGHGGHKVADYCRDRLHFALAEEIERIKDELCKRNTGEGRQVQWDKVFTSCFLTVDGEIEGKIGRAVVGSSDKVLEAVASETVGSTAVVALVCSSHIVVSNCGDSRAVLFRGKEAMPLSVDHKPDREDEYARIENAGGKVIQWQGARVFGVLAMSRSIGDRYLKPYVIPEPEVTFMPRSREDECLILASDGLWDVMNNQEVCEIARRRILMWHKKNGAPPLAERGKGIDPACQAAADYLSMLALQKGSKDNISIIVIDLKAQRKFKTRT
T31 sequence (O49686 whole entry K59R/F159I): as the sequence (O49686 whole entry K59R/F159M) above, with M159I counted along it
T31 sequence (Q9CAJ0 23-511, further chain): as the sequence (Q9CAJ0 23-511, further chain) above
T3 sequence (Q9CAJ0 23-511): as the sequence (Q9CAJ0 23-511, further chain) above
T3 sequence (O49686 whole entry K59R/E141Y/A160G): as the sequence (O49686 whole entry K59R/F159M) above, with E141Y, M159F, A160G counted along it
T5 sequence (Q9CAJ0 23-511, stated change not applied): as the sequence (Q9CAJ0 23-511, further chain) above
T5 sequence (O49686 whole entry K59R/A160G/V164K): as the sequence (O49686 whole entry K59R/F159M) above, with M159F, A160G, V164K counted along it
T9 sequence (Q9CAJ0 23-511): as the sequence (Q9CAJ0 23-511, further chain) above
T9 sequence (O49686 whole entry K59R/F159C): as the sequence (O49686 whole entry K59R/F159M) above, with M159C counted along it
T29 sequence (Q9CAJ0 23-511): as the sequence (Q9CAJ0 23-511, further chain) above
T29 sequence (O49686 whole entry K59R/T162Y): as the sequence (O49686 whole entry K59R/F159M) above, with M159F, T162Y counted along it
T4 sequence (Q9CAJ0 23-511, stated change not applied): as the sequence (Q9CAJ0 23-511, further chain) above
T4 sequence (O49686 whole entry K59R/L117C/A160G): as the sequence (O49686 whole entry K59R/F159M) above, with L117C, M159F, A160G counted along it

c1ccc2snnc2c1 [Benzothiadiazole, benzothiadiazole]
Threshold (PYR1 K59R A89C A160G): 5 µM | Threshold (PYR1 K59R A89C E141Y): 0.2 µM | Threshold (PYR1 K59R E141Y A160G): 5 µM | Threshold (PYR1 K59R A160G L117C): 25 µM | Threshold (PYR1 K59R A160G V164K): 5 µM | Threshold (PYR1 K59R A89C V164K): 0.2 µM | Threshold (PYR1 K59R L117C V164K): 100 µM | Threshold (PYR1 K59R A89C L117C): 25 µM | Threshold (PYR1 K59R F159C): 100 µM | Threshold (PYR1 K59R M158V): 100 µM | Threshold (PYR1 K59R F159M): 100 µM | Threshold (PYR1 K59R V81I): 100 µM | Threshold (PYR1 K59R F159V): 100 µM | Threshold (PYR1 K59R T162K): 100 µM | Threshold (PYR1 K59R T162W): 100 µM | Threshold (PYR1 K59R V83L): 100 µM | Threshold (PYR1 K59R E141Y): 100 µM | Threshold (PYR1 K59R L117C): 100 µM | Threshold (PYR1 K59R M158T): 100 µM | Threshold (PYR1 K59R A89C): 100 µM | Threshold (PYR1 K59R F159A): 100 µM | Threshold (PYR1 K59R V164K): 100 µM | Threshold (PYR1 K59R M158I): 100 µM | Threshold (PYR1 K59R F159L): 100 µM | Threshold (PYR1 K59R V164Y): 100 µM | Threshold (PYR1 K59R E141K): 100 µM | Threshold (PYR1 K59R A160G): 100 µM | Threshold (PYR1 K59R F159T): 100 µM | Threshold (PYR1 K59R T162Y): 100 µM | Threshold (PYR1 K59R M158C): 100 µM | Threshold (PYR1 K59R F159I): 100 µM
